Legend:
Type in all cases: in vivo, C57BL/6 mice
[1] = system: mice in which obesity is induced with a high-fat diet; assay: Body weight and food intake of high-fat diet obese mice treated with panduratin derivatives; conditions: for food intake, test group versus other groups: high-fat diet obese C57BL/6 mice; for body weight increase after 8 weeks: high-fat diet control about 32%
Excerpt: (§1) Mice in which obesity is induced with a high-fat diet were selected as a model to investigate the obesity-relieving effect of panduratin A prepared in Example 2. 3-week-old C57BL/6 mice were accustomed for a week, and a high-fat diet (Product # D12492, Research Diet Inc., New Brunswick, N.J., USA) was provided for 6 weeks to induce obesity. Then, the mice were randomly divided into 3 groups, 12 per each group. For the test group, panduratin A suspended in 0.25% carboxymethyl cellulose was administered once a day at regular hours for 8 weeks, with an administration dose of 50 mg/kg body weight. For comparison, 0.25% carboxymethyl cellulose only (control) of the same amount as that for the test group or sibutramine suspended in 0.25% carboxymethyl cellulose (5 mg/kg body weight) was orally administered. Then, food intake and body weight of the mice were measured every week, for 8 weeks.
(§2) The effect of isopanduratin A prepared in Example 3 on body weight and body fat decrease was investigated in the same manner as in Examples 5 and 6. After administration for 8 weeks, there was no difference between the test group and other groups in food intake.
(§3) The effect of 4-hydroxypanduratin A prepared in Example 4 on body weight and body fat decrease was investigated in the same manner as in Examples 5 and 6. After administration for 8 weeks, there was no difference between the 4-hydroxypanduratin-administered test group and other groups in food intake.

[2] = system: mice in which obesity is induced with a high-fat diet; assay: Body fat (abdominal, perirenal, epididymal) in high-fat diet obese mice treated with panduratin derivatives; conditions: administration for 8 weeks, same manner as panduratin A (50 mg/kg)
Description: as §1, with “3-week-old” for “Mice in which obesity is induced with a high-fat diet were selected as a model to investigate the obesity-relieving effect of panduratin A prepared in Example 2. 3-week-old”, “After administration for 8 weeks,” for “Then, food intake and body weight of”, “fasted” for “measured every week,”, “at least 12 hours. After cutting open the abdomen, perirenal fat and epididymal fat were taken out, washed with physiological saline, dried, and then weighed.” for “8 weeks.”
as §2, §3

[3] = system: mice in which obesity is induced with a high-fat diet; assay: Body weight and food intake of high-fat diet obese mice treated with Boesenbergia pandurata extract; conditions: sibutramine 5 mg/kg orally for 8 weeks; high-fat diet control about 33%
Excerpt: as §1, with “of the Boesenbergia pandurata extract” for “of panduratin A”, “Example 1. 4-week-old” for “Example 2. 3-week-old”, “groups, 8” for “groups, 12”, “group, Boesenbergia pandurata extract” for “group, panduratin A”, “of 200” for “of 50”

[4] = system: mice in which obesity is induced with a high-fat diet; assay: Serum total cholesterol, triglyceride, total lipid and leptin in high-fat diet obese mice; conditions: sibutramine 5 mg/kg orally for 8 weeks
Description: 3-week-old C57BL/6 mice were accustomed for a week, and a high-fat diet (Product # D12492, Research Diet Inc., New Brunswick, N.J., USA) was provided for 6 weeks to induce obesity. Then, the mice were randomly divided into 3 groups, 12 per each group. For the test group, panduratin A suspended in 0.25% carboxymethyl cellulose was administered once a day at regular hours for 8 weeks, with an administration dose of 50 mg/kg body weight. For comparison, 0.25% carboxymethyl cellulose only (control) of the same amount as that for the test group or sibutramine suspended in 0.25% carboxymethyl cellulose (5 mg/kg body weight) was orally administered. After administration for 8 weeks, the mice were fasted for at least 12 hours. After cutting open the abdomen, blood was taken from the heart. The blood was centrifuged at 2,800 rpm at 4° C. for 30 minutes to separate the serum. The separated serum was stored at −70° C.
Total cholesterol level in the serum was determined by measuring absorbance at 500 nm using a standard enzyme assay kit. Serum triglyceride level was determined by measuring absorbance at 546 nm using a glycerol phosphate oxidase assay kit. Serum total lipid level was determined by measuring absorbance at 540 nm by the Frings method. Serum leptin level was determined by radioimmunoassay (RIA) using a mouse leptin RIA kit (Linco Research, Inc. USA).

[5] = 50 mg/kg body weight once a day for 8 weeks

Structure (SMILES)	food intake, test group versus other groups [1, 5]	body weight increase after 8 weeks [1, 5] [%]	decrease of epididymal fat weight as compared to the high-fat diet control group [2] [%]	decrease of perirenal fat weight as compared to the high-fat diet control group [2] [%]	body weight increase after 8 weeks ([1]; sibutramine 5 mg/kg body weight orally for 8 weeks)	body weight increase after 8 weeks [3]	total cholesterol level in the serum ([4]; control 140.73±16.47) [mg/dL]	serum triglyceride level ([4]; control 154.36±27.02) [mg/dL]	total lipid level in the serum ([4]; control 555.18±80.86) [mg/dL]
CC(C)=CC[C@@H]1C(C)=CC[C@@H](c2ccccc2)[C@@H]1C(=O)c1c(O)cc(O)cc1O [4-hydroxypanduratin A]	no difference	~13	46	33	–	–	–	–	–
COc1cc(O)cc(O)c1C(=O)[C@@H]1[C@H](CC=C(C)C)C(C)=CC[C@H]1c1ccccc1 [isopanduratin A, (4,6-dihydroxy-2-methoxyphenyl)[3-methyl-2-(3-methylbut-2-enyl)-6-phenylcyclohex-3-enyl]methanone]	no difference	~17	32	25	–	–	–	–	–
CC(C)CC(N(C)C)C1(c2ccc(Cl)cc2)CCC1 (stereo not shown) [sibutramine]	–	–	–	–	about 20%	about 27%	122.4 ± 22.6	150.2 ± 20.19	493.2 ± 111.9
